logP	Compound
3.09	O=CC=CC#CC#Cc1ccccc1
2.45	CC=CC#CC#CC=CC(=O)OC
3.85	CC#CC#CC#CC=CC(=O)OC
4.91	CC#CC#CC#Cc1ccccc1
5.15	C=CC#Cc1ccc(-c2cccs2)s1
3.91	CC=CC#CC#CC#CC=CC(Cl)CO (stereo unspecified)
2.48	OCC=CC#CC#Cc1ccccc1
4.6	CC#CC#Cc1ccc(C#CC(Cl)COC(C)=O)s1 (stereo unspecified)
2.09	CC=CC#CC=C1C=CC(=O)O1
4.76	CC=CC#CC#Cc1ccccc1

Compound	logP
c1csc(-c2ccc(-c3cccs3)s2)c1	5.57

— the OPERA property sets (Mansouri et al. 2018)
